Assays:
[1] = molecular target: T1, Heat shock protein HSP90 (Homo sapiens) (UniProt P07900+P08238); assay: Inhibition of HSP90 in human MCF7 cells assessed as induction of mitochondrial membrane potential loss by measuring cell population with intact mitochondrial membrane potential at 10 uM after 24 hrs by JC1 staining-based flow cytometry analysis (reference value: 92.39 %); set-up: scale not given: the % may be the effect or the level left
[2] = molecular target: T1, Heat shock protein HSP90 (Homo sapiens); assay: Inhibition of HSP90 in human MCF7 cells assessed as induction of nuclear morphological changes by measuring horse shoe shaped nuclei formation at 2.5 to 10 uM by DAPI staining based fluorescence microscopy analysis; type: cell-based; settings: dose microM 2.5-10
[3] = molecular target: T1, Heat shock protein HSP90 (Homo sapiens); assay: Inhibition of HSP90 in human MCF7 cells assessed as cell cycle arrest by measuring accumulation at S phase at 10 uM measured after 24 hrs by RNaseA/propidium iodide staining based flow cytometric analysis (reference value: 7.08 %); set-up: scale not given: the % may be the effect or the level left
[4] = molecular target: T1, Heat shock protein HSP90 (Homo sapiens); assay: Inhibition of HSP90 in human MCF7 cells assessed as induction of morphological changes by measuring chromatin condensation and fragmentation in nucleus at 2.5 to 10 uM by acridine orange/ethidium bromide staining based fluorescence microscopy analysis; type: cell-based; settings: dose microM 2.5-10
[5] = molecular target: T1, Heat shock protein HSP90 (Homo sapiens); assay: Inhibition of HSP90 in human MCF7 cells assessed as induction of apoptosis by measuring early apototic cells at 5 uM measured after 24 hrs by annexinV-FITC/propidium iodide staining based flow cytometry (reference value: 1.31 %); type: cell-based; set-up: scale not given: the % may be the effect or the level left
[6] = molecular target: T1, Heat shock protein HSP90 (Homo sapiens); assay: Inhibition of HSP90 in human MCF7 cells assessed as cell cycle arrest by measuring accumulation at S phase at 5 uM measured after 24 hrs by RNaseA/propidium iodide staining based flow cytometric analysis (reference value: 7.08 %); set-up: scale not given: the % may be the effect or the level left
[7] = molecular target: T1, Heat shock protein HSP90 (Homo sapiens); assay: Inhibition of HSP90 in human MCF7 cells assessed as induction of apoptosis by measuring early apototic cells at 10 uM measured after 24 hrs by annexinV-FITC/propidium iodide staining based flow cytometry (reference value: 1.31 %); type: cell-based; set-up: scale not given: the % may be the effect or the level left
[8] = molecular target: T1, Heat shock protein HSP90 (Homo sapiens); assay: Inhibition of HSP90 in human MCF7 cells assessed as induction of apoptosis by measuring live cells at 2.5 uM measured after 24 hrs by annexinV-FITC/propidium iodide staining based flow cytometry (reference value: 90.77 %); type: cell-based; set-up: scale not given: the % may be the effect or the level left
[9] = molecular target: T1, Heat shock protein HSP90 (Homo sapiens); assay: Inhibition of HSP90 in human MCF7 cells assessed as induction of apoptosis by measuring late apototic cells at 2.5 uM measured after 24 hrs by annexinV-FITC/propidium iodide staining based flow cytometry (reference value: 7.91 %); type: cell-based; set-up: scale not given: the % may be the effect or the level left
[10] = molecular target: T1, Heat shock protein HSP90 (Homo sapiens); assay: Inhibition of HSP90 in human MCF7 cells assessed as induction of mitochondrial membrane potential loss by measuring cell population with mitochondrial membrane potential collapse at 10 uM after 24 hrs by JC1 staining-based flow cytometry analysis (reference value: 6.53 %); set-up: scale not given: the % may be the effect or the level left
[11] = molecular target: T1, Heat shock protein HSP90 (Homo sapiens); assay: Inhibition of HSP90 in human MCF7 cells assessed as induction of apoptosis by measuring late apototic cells at 10 uM measured after 24 hrs by annexinV-FITC/propidium iodide staining based flow cytometry (reference value: 7.91 %); type: cell-based; set-up: scale not given: the % may be the effect or the level left
[12] = molecular target: T1, Heat shock protein HSP90 (Homo sapiens); assay: Inhibition of HSP90 in human MCF7 cells assessed as induction of apoptosis by measuring necrotic cells at 2.5 uM measured after 24 hrs by annexinV-FITC/propidium iodide staining based flow cytometry (reference value: 0.01 %); type: cell-based; set-up: scale not given: the % may be the effect or the level left
[13] = molecular target: T1, Heat shock protein HSP90 (Homo sapiens); assay: Inhibition of HSP90 in human MCF7 cells assessed as induction of apoptosis by measuring necrotic cells at 5 uM measured after 24 hrs by annexinV-FITC/propidium iodide staining based flow cytometry (reference value: 0.01 %); type: cell-based; set-up: scale not given: the % may be the effect or the level left
[14] = molecular target: T1, Heat shock protein HSP90 (Homo sapiens); assay: Inhibition of HSP90 in human MCF7 cells assessed as cell cycle arrest by measuring accumulation at G0/G1 phase at 2.5 uM measured after 24 hrs by RNaseA/propidium iodide staining based flow cytometric analysis (reference value: 39.10 %); set-up: scale not given: the % may be the effect or the level left
[15] = molecular target: T1, Heat shock protein HSP90 (Homo sapiens); assay: Inhibition of HSP90 in human MCF7 cells assessed as cell cycle arrest by measuring accumulation at G0/G1 phase at 5 uM measured after 24 hrs by RNaseA/propidium iodide staining based flow cytometric analysis (reference value: 39.10 %); set-up: scale not given: the % may be the effect or the level left
[16] = molecular target: T1, Heat shock protein HSP90 (Homo sapiens); assay: Inhibition of HSP90 in human MCF7 cells assessed as induction of apoptosis by measuring necrotic cells at 10 uM measured after 24 hrs by annexinV-FITC/propidium iodide staining based flow cytometry (reference value: 0.01 %); type: cell-based; set-up: scale not given: the % may be the effect or the level left
[17] = molecular target: T1, Heat shock protein HSP90 (Homo sapiens); assay: Inhibition of HSP90 in human MCF7 cells assessed as induction of apoptosis by measuring live cells at 10 uM measured after 24 hrs by annexinV-FITC/propidium iodide staining based flow cytometry (reference value: 90.77 %); type: cell-based; set-up: scale not given: the % may be the effect or the level left
[18] = molecular target: T1, Heat shock protein HSP90 (Homo sapiens); assay: Inhibition of HSP90 in human MCF7 cells assessed as cell cycle arrest by measuring accumulation at Sub-G1 phase at 2.5 uM measured after 24 hrs by RNaseA/propidium iodide staining based flow cytometric analysis (reference value: 3.75 %); set-up: scale not given: the % may be the effect or the level left
[19] = molecular target: T1, Heat shock protein HSP90 (Homo sapiens); assay: Inhibition of HSP90 in human MCF7 cells assessed as induction of apoptosis by measuring live cells at 5 uM measured after 24 hrs by annexinV-FITC/propidium iodide staining based flow cytometry (reference value: 90.77 %); type: cell-based; set-up: scale not given: the % may be the effect or the level left
[20] = molecular target: T1, Heat shock protein HSP90 (Homo sapiens); assay: Inhibition of HSP90 in human MCF7 cells assessed as cell cycle arrest by measuring accumulation at G2/M phase at 5 uM measured after 24 hrs by RNaseA/propidium iodide staining based flow cytometric analysis (reference value: 25.08 %); set-up: scale not given: the % may be the effect or the level left

Nc1nc(-c2ccc(Br)cc2)cc(-c2cn(-c3ccc(Cl)cc3)nc2-c2ccc([N+](=O)[O-])cc2)n1
Activity [1]: 46%
inhibition [2]: Dose-dependent effect
Activity [3]: 4.13%
inhibition [4]: Dose-dependent effect
Activity [5]: 3.8%
Activity [6]: 5.15%
Activity [7]: 4.11%
Activity [8]: 87.9%
Activity [9]: 10.1%
Activity [10]: 53%
Activity [11]: 30.5%
Activity [12]: 0.07%
Activity [13]: 0.17%
Activity [14]: 35.2%
Activity [15]: 28%
Activity [16]: 0.12%
Activity [17]: 62.3%
Activity [18]: 6.27%
Activity [19]: 77.4%
Activity [20]: 23%
